Reference: BindingDB's records for patent US12344612 (Genentech, 2025)

Biological target: T1, Receptor-interacting serine/threonine-protein kinase 1 (Homo sapiens, UniProt Q13546)
T1 sequence (Q13546 whole entry): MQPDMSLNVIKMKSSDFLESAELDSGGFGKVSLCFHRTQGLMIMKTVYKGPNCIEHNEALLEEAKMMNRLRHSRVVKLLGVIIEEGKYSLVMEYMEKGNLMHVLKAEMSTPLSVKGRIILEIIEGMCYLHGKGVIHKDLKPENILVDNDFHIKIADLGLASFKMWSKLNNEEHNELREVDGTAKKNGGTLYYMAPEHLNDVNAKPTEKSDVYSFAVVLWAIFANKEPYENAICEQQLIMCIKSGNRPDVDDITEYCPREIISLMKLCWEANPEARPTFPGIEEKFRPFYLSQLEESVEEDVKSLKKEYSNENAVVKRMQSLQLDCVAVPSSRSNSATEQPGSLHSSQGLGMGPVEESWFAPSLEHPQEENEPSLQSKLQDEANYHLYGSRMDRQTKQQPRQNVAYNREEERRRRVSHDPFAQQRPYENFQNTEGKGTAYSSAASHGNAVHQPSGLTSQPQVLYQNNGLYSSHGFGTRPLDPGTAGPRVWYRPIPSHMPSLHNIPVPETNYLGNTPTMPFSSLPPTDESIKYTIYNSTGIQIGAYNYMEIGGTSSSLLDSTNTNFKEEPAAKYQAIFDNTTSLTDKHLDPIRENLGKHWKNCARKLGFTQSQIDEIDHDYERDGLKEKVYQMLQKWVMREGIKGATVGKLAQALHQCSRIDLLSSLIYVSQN
Assay: Not found
Text: Not found

With `O=C(c1nc2n(n1)CC[C@H]2c1ccccc1)C1CC1` (single isomer, unassigned) [US12344612, Example 10] the Ki was 51 nM.
